Test results reported in ChEMBL document CHEMBL1201862, “PubChem BioAssay data set” (2004).
Activity calls are given as the source filed them.

Assays:
[1] = molecular target: Delta-type opioid receptor (Homo sapiens, UniProt P41143); experiment: Counterscreen for agonists of heterodimerization of the mu 1 (OPRM1) and delta 1 (OPRD1) opioid receptors: Luminescence-based cell-based high throughput dose response assay to identify agonists of OPRD1 homodimerization. [Related pubchem assays (depositor defined):AID504326, AID504355, AID504692, AID504904, AID504905]; type: functional
[2] = molecular target: 5-hydroxytryptamine receptor 5A (Homo sapiens, UniProt P47898); experiment: Counterscreen for agonists of OPRM1-OPRD1 heterodimerization: luminescence-based cell-based high throughput dose response assay to identify agonists of 5-hydroxytryptamine (serotonin) 5A receptor (HTR5A). [Related pubchem assays (depositor defined):AID504326, AID504355, AID504692, AID504904, AID504905]; type: functional
[3] = molecular target: T1, Short transient receptor potential channel 4 (Mus musculus, UniProt Q9QUQ5); experiment: mouse TRPC4 channel activators, dose response, cell-based, HEK293 TRPC4/mu-opioid, Fluo-4 calcium (AID 434937); type: functional
T1 sequence (Q9QUQ5 whole entry): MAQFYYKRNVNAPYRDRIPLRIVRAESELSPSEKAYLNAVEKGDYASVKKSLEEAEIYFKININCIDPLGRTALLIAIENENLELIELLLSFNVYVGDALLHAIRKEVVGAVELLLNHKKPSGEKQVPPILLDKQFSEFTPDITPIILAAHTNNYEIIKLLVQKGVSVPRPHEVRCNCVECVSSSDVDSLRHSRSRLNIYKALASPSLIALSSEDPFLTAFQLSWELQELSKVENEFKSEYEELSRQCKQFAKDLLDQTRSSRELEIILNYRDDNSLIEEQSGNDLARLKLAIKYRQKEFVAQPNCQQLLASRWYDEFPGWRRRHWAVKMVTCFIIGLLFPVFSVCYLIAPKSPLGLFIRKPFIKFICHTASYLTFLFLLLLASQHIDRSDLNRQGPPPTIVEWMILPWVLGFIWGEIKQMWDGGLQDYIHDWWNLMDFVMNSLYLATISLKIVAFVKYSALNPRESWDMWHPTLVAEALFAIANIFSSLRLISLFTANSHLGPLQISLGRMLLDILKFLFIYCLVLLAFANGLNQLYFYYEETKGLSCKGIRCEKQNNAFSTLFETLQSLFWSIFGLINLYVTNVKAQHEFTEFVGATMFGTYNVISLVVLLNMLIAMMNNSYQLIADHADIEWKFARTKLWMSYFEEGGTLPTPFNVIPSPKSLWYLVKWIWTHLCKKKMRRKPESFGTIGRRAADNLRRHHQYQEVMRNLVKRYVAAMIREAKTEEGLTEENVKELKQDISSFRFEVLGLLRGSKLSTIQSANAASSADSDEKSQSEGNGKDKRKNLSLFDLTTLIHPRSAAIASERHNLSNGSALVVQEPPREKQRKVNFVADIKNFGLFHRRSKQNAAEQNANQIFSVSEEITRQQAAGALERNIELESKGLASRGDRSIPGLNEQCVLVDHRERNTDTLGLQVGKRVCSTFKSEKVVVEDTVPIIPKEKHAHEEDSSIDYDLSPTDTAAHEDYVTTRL

[4] = molecular target: Mu-type opioid receptor (Homo sapiens, UniProt P35372); experiment: Counterscreen for agonists of heterodimerization of the mu 1 (OPRM1) and delta 1 (OPRD1) opioid receptors: Luminescence-based cell-based high throughput dose response assay to identify agonists of OPRM1 homodimerization.; type: functional;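 note: U2OS cells expressing OPRM1 and beta-arrestin as split beta-galactosidase partners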
[5] = molecular target: Beta-galactosidase (Escherichia coli, UniProt Q8VNN2); experiment: PubChem AID 485352; type: functional
[6] = molecular target: T2, Type-1 angiotensin II receptor (Homo sapiens, UniProt P30556); experiment: AT1 receptor antagonists, dose response, selectivity assay for APJ receptor antagonist project, cell-based, uHTS hits (AID 463214); type: functional;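 note: antagonist potency against angiotensin II stimulated AT1 response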
T2 sequence (P30556 whole entry): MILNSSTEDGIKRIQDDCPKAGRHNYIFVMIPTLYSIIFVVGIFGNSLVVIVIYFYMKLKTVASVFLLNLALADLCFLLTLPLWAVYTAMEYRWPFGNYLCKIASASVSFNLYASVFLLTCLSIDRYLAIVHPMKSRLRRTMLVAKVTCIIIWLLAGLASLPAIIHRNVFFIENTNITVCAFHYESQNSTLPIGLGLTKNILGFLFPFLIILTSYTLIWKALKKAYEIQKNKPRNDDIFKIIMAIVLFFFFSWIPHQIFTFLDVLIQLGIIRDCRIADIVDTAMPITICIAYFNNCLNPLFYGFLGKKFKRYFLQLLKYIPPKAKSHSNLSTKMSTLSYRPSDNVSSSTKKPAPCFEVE

[7] = test system: HEK293; experiment: cells; type: functional, cell-based; conditions: Homo sapiens
[8] = molecular target: T3, Nuclear receptor subfamily 0 group B member 1 (Homo sapiens, UniProt P51843); experiment: Luminescence-based cell-based high throughput dose response assay for inhibitors of the orphan nuclear receptor subfamily 0, group B, member 1 (DAX1; NR0B1). [Related pubchem assays (depositor defined):AID504766, AID504790]; type: functional
T3 sequence (P51843 whole entry): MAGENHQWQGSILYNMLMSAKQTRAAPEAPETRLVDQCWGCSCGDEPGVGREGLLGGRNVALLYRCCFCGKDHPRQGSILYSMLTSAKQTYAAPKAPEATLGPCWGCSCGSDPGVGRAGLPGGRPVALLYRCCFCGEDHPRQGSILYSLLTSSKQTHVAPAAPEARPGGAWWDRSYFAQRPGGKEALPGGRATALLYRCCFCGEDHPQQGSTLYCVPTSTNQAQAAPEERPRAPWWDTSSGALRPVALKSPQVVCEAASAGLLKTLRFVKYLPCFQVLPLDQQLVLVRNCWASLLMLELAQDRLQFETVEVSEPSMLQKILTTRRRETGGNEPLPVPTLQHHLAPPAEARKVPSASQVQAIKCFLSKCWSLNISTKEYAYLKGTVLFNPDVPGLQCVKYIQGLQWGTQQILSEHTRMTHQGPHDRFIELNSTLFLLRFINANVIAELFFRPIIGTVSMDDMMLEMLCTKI

[9] = molecular target: T1, Short transient receptor potential channel 4; experiment: TRPC4 inhibitor concentration-response, dose response, cell-based, HEK293 TRPC4/mu-opioid, DAMGO stimulus, Fluo-4 (AID 492994); type: functional
[10] = growth suppression of beta-catenin-knockout colon cells, dose response, cell-based, HCT116, human colon tumor (AID 1045); type: functional;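 note: HCT116 colon tumor cells with beta catenin knocked out; cells exposed to compound for 60 hours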
[11] = test system: A-375; experiment: A375 melanoma cell viability reduction, dose response, counter-screen for MITF modulator project, cherry-pick samples, set 2 (AID 540335); type: functional, cell-based; conditions: Homo sapiens
[12] = molecular target: T4, Microphthalmia-associated transcription factor (Homo sapiens, UniProt O75030); experiment: TRPM1 promoter luciferase signal decrease, dose response, MITF inhibitor project, cell-based, SK-MEL-5, cherry-picked, set 3 (AID 493073); type: functional
T4 sequence (O75030 whole entry): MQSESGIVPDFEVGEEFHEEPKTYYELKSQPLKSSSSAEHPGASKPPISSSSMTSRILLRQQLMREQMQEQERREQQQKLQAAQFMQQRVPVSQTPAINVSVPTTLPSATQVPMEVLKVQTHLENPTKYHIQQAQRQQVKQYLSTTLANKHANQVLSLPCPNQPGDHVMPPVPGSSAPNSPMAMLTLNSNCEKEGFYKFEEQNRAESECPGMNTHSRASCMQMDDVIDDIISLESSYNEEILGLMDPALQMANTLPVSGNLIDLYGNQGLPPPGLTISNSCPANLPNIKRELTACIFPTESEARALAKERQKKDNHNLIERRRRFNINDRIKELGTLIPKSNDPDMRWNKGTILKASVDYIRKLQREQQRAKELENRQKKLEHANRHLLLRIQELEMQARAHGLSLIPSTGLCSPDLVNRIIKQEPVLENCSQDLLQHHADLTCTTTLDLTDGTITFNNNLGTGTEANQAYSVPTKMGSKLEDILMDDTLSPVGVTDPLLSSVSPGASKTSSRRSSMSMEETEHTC

[13] = molecular target: Protein Wnt-3a (Mus musculus, UniProt P27467); experiment: Wnt3a-driven reporter signaling inhibition, dose response, selectivity assay for Gli-SUFU antagonist project, Wnt-LIGHT cells, luminescence (AID 651570); type: functional; conditions: read-out: IC50_Mean;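 note: Wnt-LIGHT reporter cells stimulated with conditioned medium from Wnt3a-producing cells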
[14] = growth suppression of PTEN-null colon cells, dose response, cell-based, HCT116 PTEN knockout (AID 1047); type: functional;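 note: HCT116 colon tumor cells with PTEN knocked out; cells exposed to compound for 60 hours before readout; potency for loss of cell viability measured by luminescence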

Chain of Delta-type opioid receptor (P41143 whole entry): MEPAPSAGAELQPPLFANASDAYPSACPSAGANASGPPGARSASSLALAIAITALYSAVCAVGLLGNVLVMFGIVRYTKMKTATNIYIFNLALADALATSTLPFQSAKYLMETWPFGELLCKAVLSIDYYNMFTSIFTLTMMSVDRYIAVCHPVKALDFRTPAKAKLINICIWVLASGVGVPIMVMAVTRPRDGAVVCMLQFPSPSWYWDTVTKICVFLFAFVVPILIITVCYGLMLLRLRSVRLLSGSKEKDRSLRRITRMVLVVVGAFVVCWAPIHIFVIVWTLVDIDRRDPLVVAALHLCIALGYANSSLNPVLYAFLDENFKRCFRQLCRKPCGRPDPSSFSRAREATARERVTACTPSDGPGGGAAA
Chain of Protein Wnt-3a (P27467 whole entry): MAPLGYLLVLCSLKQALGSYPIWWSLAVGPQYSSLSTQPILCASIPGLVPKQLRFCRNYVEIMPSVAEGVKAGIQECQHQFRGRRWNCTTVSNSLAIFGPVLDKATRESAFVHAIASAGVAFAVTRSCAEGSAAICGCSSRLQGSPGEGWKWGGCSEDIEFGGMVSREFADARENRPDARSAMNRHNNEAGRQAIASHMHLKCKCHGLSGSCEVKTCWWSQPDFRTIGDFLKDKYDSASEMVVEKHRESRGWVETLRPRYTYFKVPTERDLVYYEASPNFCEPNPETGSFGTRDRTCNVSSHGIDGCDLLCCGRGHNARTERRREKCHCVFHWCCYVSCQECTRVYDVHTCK
Chain of Mu-type opioid receptor (P35372 whole entry): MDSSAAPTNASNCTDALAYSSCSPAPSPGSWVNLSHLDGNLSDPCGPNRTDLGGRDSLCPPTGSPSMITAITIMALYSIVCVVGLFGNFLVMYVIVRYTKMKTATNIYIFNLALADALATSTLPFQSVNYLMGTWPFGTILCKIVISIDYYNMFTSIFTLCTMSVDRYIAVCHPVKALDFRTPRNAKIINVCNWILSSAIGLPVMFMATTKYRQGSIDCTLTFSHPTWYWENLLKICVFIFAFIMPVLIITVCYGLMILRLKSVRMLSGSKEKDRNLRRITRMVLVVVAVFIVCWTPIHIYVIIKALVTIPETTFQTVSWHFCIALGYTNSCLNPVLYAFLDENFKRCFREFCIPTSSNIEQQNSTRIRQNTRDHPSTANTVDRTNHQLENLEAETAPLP
Chain of Beta-galactosidase (Q8VNN2 whole entry): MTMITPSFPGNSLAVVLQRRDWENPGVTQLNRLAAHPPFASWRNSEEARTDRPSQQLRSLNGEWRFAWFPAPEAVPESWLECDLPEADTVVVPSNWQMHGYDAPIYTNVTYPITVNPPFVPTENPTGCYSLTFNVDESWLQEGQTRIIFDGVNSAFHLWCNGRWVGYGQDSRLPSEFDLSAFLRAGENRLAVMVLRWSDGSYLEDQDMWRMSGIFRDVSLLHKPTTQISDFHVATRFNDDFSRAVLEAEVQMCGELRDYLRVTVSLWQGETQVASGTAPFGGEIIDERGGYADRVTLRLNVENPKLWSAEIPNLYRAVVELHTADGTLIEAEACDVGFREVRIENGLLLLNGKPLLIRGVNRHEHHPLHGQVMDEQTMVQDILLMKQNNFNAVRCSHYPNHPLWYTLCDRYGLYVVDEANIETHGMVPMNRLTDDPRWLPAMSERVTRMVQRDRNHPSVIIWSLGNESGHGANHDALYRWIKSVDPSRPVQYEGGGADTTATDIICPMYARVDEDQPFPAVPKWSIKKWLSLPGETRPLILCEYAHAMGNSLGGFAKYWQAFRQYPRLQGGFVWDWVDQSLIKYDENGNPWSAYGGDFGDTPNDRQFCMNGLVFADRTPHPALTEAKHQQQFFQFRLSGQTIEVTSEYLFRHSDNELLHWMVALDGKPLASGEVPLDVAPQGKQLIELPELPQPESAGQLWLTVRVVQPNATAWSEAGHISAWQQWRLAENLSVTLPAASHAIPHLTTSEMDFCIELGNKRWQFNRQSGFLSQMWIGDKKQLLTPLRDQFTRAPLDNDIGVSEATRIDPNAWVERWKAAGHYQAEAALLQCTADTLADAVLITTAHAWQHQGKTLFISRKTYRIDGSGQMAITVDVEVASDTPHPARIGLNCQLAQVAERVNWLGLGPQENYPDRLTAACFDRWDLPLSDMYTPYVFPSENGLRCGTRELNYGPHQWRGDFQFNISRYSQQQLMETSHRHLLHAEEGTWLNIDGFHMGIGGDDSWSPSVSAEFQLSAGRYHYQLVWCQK
Chain of 5-hydroxytryptamine receptor 5A (P47898 whole entry): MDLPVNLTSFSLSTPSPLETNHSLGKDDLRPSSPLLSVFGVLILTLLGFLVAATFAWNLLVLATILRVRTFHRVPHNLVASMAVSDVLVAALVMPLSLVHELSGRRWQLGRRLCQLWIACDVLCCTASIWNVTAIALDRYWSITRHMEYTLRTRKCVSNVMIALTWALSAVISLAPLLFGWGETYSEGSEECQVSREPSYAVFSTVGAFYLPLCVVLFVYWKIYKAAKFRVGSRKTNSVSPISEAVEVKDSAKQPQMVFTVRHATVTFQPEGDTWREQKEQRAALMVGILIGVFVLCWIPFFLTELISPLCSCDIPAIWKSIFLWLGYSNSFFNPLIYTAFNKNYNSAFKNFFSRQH

With `COc1ccc(C(CNC(=O)C(Cc2ccccc2)NC(N)=O)N(C)C)cc1` (centres undefined) the EC50 [1] was > 92.5 µM (inactive), the EC50 [2] was > 92.5 µM (inactive) and the EC50 [3] was 473 nM (active). For the same molecule, the EC50 [4] was > 92.5 µM (inactive).

For `CC1CCCN(CC(=O)c2ccc(Cl)c(Cl)c2)C1` (centres undefined), the EC50 [5] was 30.8 µM (active) and the IC50 [6] was 4.76 µM (active).

For `O=C(O)Cc1sc(Nc2ccccc2)nc1-c1cccs1`, the IC50 [7] was > 67.5 µM (inactive) and the IC50 [8] was > 67.5 µM (inactive).

In the case of `Cc1cc(N2CCN(c3ncccn3)CC2)nc2ccccc12`, the IC50 [9] was 469 µM (active).

With `CCn1c(/C=C/Nc2ccccc2)[n+](CC)c2cc(Cl)c(Cl)cc21` the EC50 [10] was 1.68 µM (active), the AC50 [11] was 34.8 µM (active) and the AC50 [12] was 14.5 µM (active). The IC50 [13] was 7.29 µM (active) and the EC50 [14] was 2.4 µM (active).
